Common to all, as to assay type: cell-based
The target of assay [1] is T1, K562-αvβ6 (LAP-b1) (Homo sapiens, UniProt P06756+P18564).
T1 construct: expressed in transfected cells; host or cells: K562
Briefly: Cell Adhesion Assay αvβ6. The settings on record: K562-αvβ6 cells, ligand LAP-b1, 2 mM MgCl2, BCECF-AM fluorescence; read-out: mean affinity (pIC50) αvβ6 (converted).
Procedure: (§1) The divalent cation used to facilitate adhesion was 2 mM MgCl2. Adhesion was quantified by cell labelling with the fluorescent dye BCECF-AM (Life Technologies), where cell suspensions at 3×10^6 cells/mL were incubated with 0.33 mL/mL of 30 mM BCECF-AM at 37° C. for 10 minutes, before dispensing into the assay plate. At the assay conclusion cells that adhered were lysed using 50 μL/well of 0.5% Triton X-100 in H2O to release fluorescence. Fluorescence intensity was detected using an Envision® plate reader (Perkin Elmer).

Assay [2] deals with T2, K562-αvβ3 (LAP-b1) (Homo sapiens, UniProt P05106+P06756).
T2 construct: expressed in transfected cells; host or cells: K562
The assay is described as follows: Cell Adhesion Assay αvβ3. Conditions: K562-αvβ3 cells, ligand LAP-b1, 2 mM MgCl2, BCECF-AM fluorescence; read-out: mean affinity (pIC50) αvβ3 (converted).
Procedure: as §1

Assay [3] has as its target T3, K562-αvβ5 (Vitronectin) (Homo sapiens, UniProt P06756+P18084).
T3 construct: expressed in transfected cells; host or cells: K562
The assay is described as follows: Cell Adhesion Assay αvβ5. The settings on record: K562-αvβ5 cells, ligand Vitronectin, 2 mM MgCl2, BCECF-AM fluorescence; read-out: mean affinity (pIC50) αvβ5 (converted).
Procedure: as §1

The target in assay [4] is T4, K562-αvβ8 (LAP-b1) (Homo sapiens, UniProt P06756+P26012).
T4 construct: expressed in transfected cells; host or cells: K562
The assay is described as follows: Cell Adhesion Assay αvβ8. The settings on record: K562-αvβ8 cells, ligand LAP-b1, 2 mM MgCl2, BCECF-AM fluorescence; read-out: mean affinity (pIC50) αvβ8 (converted).
Procedure: as §1

The target in assay [5] is αvβ1 (Homo sapiens, UniProt P05556+P06756). Briefly: Cell Adhesion Assay αvβ1. Conditions: cell line and ligand for αvβ1 not listed in method, read-out: mean affinity (pIC50) αvβ1 (converted).

The values that follow come from US10004724B2, “Compounds alpha v beta 6 integrin antagonists” (GlaxoSmithKline Intellectual Property Development Limited, priority 2014, dated 2018).

T3 sequence (P06756 31-889 limits assumed): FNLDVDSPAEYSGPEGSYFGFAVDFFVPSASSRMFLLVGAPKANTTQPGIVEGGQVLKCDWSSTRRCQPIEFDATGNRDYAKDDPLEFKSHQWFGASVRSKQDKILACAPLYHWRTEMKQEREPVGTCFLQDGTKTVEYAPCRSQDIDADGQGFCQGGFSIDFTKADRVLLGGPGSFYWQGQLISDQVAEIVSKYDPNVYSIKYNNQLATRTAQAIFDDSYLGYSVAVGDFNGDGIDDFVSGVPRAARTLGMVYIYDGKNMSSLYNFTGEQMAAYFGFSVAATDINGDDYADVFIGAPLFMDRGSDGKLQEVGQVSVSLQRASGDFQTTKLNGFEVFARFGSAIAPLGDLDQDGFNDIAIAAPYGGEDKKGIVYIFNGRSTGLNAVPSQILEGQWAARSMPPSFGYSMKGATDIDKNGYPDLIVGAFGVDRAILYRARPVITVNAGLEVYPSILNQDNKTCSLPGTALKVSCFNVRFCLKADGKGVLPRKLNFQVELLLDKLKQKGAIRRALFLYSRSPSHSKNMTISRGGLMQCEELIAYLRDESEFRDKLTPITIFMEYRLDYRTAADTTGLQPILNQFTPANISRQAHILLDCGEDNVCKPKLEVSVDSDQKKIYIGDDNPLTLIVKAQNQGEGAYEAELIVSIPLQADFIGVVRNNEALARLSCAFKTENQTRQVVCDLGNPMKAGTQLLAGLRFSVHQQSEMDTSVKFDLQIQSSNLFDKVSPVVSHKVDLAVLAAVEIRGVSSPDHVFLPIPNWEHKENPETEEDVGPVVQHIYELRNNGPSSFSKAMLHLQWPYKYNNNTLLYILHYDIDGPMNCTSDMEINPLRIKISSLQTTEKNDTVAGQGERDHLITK
T3 sequence (P06756 891-1048 limits assumed): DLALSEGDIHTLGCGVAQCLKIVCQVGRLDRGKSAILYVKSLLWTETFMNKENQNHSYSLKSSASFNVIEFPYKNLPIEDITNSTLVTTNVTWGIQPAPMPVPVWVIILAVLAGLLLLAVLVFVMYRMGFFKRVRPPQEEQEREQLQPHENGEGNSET
T3 sequence (P18084 24-799): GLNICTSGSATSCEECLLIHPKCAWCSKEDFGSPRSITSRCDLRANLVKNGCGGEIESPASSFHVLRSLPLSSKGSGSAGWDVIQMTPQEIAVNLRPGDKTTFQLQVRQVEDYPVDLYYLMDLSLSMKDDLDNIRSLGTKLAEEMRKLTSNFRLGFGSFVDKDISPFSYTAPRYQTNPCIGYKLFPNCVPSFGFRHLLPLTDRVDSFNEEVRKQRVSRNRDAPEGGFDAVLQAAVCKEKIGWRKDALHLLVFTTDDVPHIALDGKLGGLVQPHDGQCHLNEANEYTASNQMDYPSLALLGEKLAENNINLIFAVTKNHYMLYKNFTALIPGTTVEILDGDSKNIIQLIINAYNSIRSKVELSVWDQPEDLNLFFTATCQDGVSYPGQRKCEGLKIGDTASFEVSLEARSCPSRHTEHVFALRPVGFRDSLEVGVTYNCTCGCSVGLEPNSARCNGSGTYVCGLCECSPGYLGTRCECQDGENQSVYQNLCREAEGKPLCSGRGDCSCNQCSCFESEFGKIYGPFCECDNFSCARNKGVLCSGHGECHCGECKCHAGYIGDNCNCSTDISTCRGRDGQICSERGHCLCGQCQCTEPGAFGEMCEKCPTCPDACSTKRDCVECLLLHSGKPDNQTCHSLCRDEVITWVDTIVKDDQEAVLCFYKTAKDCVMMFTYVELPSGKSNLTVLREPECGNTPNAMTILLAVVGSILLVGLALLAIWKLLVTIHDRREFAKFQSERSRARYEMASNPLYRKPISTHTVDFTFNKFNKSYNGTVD
T4 sequence (P06756 31-889 limits assumed): as the sequence (P06756 31-889 limits assumed) above
T4 sequence (P06756 891-1048 limits assumed): as the sequence (P06756 891-1048 limits assumed) above
T4 sequence (P26012 43-769): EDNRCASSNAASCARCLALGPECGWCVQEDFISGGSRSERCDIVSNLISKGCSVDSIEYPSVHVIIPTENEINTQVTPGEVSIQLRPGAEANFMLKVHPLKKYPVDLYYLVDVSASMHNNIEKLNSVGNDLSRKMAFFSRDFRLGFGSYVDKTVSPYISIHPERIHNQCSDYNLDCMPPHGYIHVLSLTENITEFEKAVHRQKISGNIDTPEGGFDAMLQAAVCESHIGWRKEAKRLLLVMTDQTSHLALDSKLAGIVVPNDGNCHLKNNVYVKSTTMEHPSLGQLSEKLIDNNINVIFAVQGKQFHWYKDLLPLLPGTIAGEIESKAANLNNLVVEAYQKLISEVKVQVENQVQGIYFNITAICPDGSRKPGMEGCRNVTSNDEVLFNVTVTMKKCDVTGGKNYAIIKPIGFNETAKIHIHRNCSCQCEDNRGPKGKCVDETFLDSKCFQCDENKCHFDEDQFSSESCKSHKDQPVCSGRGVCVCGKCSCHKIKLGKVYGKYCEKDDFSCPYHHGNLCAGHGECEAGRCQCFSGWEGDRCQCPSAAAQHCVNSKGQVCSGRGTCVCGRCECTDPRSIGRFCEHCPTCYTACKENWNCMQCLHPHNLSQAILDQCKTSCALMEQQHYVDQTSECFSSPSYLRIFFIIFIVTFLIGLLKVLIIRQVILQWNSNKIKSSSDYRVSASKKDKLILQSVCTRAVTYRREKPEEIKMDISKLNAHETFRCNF
T1 sequence (P06756 31-889 limits assumed): as the sequence (P06756 31-889 limits assumed) above
T1 sequence (P06756 891-1048 limits assumed): as the sequence (P06756 891-1048 limits assumed) above
T1 sequence (P18564 22-788): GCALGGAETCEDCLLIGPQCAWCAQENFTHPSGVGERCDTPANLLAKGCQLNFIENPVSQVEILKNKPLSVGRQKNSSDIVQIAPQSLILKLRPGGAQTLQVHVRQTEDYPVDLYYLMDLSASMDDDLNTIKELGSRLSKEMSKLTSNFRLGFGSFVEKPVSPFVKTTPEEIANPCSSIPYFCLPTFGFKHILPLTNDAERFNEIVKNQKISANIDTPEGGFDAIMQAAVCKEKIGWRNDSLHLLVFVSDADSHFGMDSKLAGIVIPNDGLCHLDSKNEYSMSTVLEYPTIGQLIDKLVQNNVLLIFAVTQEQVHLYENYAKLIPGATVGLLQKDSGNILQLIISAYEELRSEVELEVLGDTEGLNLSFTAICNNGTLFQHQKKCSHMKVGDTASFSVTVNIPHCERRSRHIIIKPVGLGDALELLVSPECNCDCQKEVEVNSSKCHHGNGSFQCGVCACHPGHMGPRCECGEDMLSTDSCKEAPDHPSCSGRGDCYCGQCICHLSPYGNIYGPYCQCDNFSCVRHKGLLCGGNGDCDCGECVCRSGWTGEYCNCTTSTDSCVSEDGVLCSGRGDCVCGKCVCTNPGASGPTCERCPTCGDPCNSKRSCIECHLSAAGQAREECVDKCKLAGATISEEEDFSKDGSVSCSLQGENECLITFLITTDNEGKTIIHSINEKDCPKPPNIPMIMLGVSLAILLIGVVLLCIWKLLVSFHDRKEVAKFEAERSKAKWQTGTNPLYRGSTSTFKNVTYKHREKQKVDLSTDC
T2 sequence (P06756 31-889 limits assumed): as the sequence (P06756 31-889 limits assumed) above
T2 sequence (P06756 891-1048 limits assumed): as the sequence (P06756 891-1048 limits assumed) above
T2 sequence (P05106 27-788): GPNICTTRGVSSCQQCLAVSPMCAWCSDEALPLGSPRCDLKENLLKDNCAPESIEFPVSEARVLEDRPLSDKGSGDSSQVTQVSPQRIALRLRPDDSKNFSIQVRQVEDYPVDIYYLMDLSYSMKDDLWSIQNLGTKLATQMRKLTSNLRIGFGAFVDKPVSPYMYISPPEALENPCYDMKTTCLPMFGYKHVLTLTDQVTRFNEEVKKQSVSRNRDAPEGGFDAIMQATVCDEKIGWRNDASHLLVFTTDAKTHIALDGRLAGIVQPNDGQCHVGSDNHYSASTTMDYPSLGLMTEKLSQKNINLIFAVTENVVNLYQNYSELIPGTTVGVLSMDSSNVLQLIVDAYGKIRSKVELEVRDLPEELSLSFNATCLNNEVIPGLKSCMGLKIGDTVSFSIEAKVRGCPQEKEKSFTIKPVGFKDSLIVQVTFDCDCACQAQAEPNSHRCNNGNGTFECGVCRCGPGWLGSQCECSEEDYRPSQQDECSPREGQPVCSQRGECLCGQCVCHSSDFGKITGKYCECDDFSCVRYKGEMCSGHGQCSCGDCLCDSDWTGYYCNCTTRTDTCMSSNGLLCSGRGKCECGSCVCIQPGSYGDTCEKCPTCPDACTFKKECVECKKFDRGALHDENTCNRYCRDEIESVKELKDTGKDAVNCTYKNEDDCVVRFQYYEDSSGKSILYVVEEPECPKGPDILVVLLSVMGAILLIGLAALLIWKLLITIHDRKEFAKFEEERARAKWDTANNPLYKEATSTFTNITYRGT

Consider `Cc1cc(-c2cc([C@H](CC(=O)O)CN3CC[C@@H](CCc4ccc5c(n4)NCCC5)C3)cc(N3CCOCC3)c2)[nH]n1` [Example 7, (S)-3-(3-(3-Methyl-1H-pyrazol-5-yl)-5-morpholinophenyl)-4-((R)-3-(2-(5,6,7,8-tetrahydro-1,8-naphthyridin-2-yl)ethyl)pyrrolidin-1-yl)butanoic acid], for which the IC50 is 10 nM in assay [1], 2000 nM in assay [2], 200 nM in assay [3] and 25.1 nM in assay [4].
`O=C(O)C[C@H](CN1CC[C@@H](CCc2ccc3c(n2)NCCC3)C1)c1cc(-c2ccn[nH]2)cc(N2CCOCC2)c1` [Example 6, (S)-3-(3-Morpholino-5-(1H-pyrazol-5-yl)phenyl)-4-((R)-3-(2-(5,6,7,8-tetrahydro-1,8-naphthyridin-2-yl)ethyl)pyrrolidin-1-yl)butanoic acid]: the IC50 in assay [1] is 3.16 nM; in assay [2] it was 1260 nM; in assay [3], 50.1 nM; in assay [4], 7.94 nM; in assay [5], 10 nM.
For `O=C(O)C[C@H](CN1CC[C@@H](CCc2ccc3c(n2)NCCC3)C1)c1cc(-c2cn[nH]c2)cc(N2CCOCC2)c1` [Example 8, (S)-3-(3-Morpholino-5-(1H-pyrazol-4-yl)phenyl)-4-((R)-3-(2-(5,6,7,8-tetrahydro-1,8-naphthyridin-2-yl)ethyl)pyrrolidin-1-yl)butanoic acid], the IC50 is 5.01 nM in assay [1], 3980 nM in assay [2], 63.1 nM in assay [3] and 5.01 nM in assay [4].
Consider `O=C(O)C[C@H](CN1CC[C@@H](CCc2ccc3c(n2)NCCC3)C1)c1cc(N2CCOCC2)cc(-n2cccn2)c1` [Example 3, (S)-3-(3-morpholino-5-(1H-pyrazol-1-yl)phenyl)-4-((R)-3-(2-(5,6,7,8-tetrahydro-1,8-naphthyridin-2-yl)ethyl)pyrrolidin-1-yl)butanoic acid], for which the IC50 in assay [1] is 3.16 nM; in assay [2] it was 3980 nM; in assay [3], 200 nM; in assay [4] it was 15.8 nM; in assay [5], 50.1 nM.
As for `Cc1ccn(-c2cc(C(CC(=O)O)CN3CC[C@@H](CCc4ccc5c(n4)NCCC5)C3)cc(N3CCOCC3)c2)n1` (mixture of isomers) [Example 4, 3-(3-(3-methyl-1H-pyrazol-1-yl)-5-morpholinophenyl)-4-((R)-3-(2-(5,6,7,8-tetrahydro-1,8-naphthyridin-2-yl)ethyl)pyrrolidin-1-yl)butanoic acid], the IC50 in assay [2] was 6310 nM; in assay [3], 158 nM; in assay [4] it was 31.6 nM.
